Assay [1] can be described thus: Bocillin-FL fluorescence polarization competition binding assay, A. baumannii PBP3. The following applies: fluorescence polarization competition binding assay using Bocillin-FL; column 3; read-out: 4. baumannii PBP1a Potency. An outline of the steps:
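A. baumannii PBP2 (2.5 μM) and PBP3 (0.2 μM) were run in 25 mM Tris pH 8.0 buffer with Tween 20; E. coli PBP3 (1.5 μM) and N. gonorrhoeae PBP2 ([…]) in 50 mM Hepes pH 8.0 buffer.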
(In fluorescence polarisation assays a small probe gives low polarisation when free and higher when bound to something large.)

Assay [2] deals with A. baumannii PBP1a (Acinetobacter baumannii, UniProt A0ABX6CK30). The experiment in a line: Bocillin-FL fluorescence polarization competition binding assay, A. baumannii PBP1a. As to conditions: fluorescence polarization competition binding assay using Bocillin-FL; column 1; read-out: A. baumannii PBP1a Potency.
Chain of A. baumannii PBP1a (A0ABX6CK30 entry or part of it): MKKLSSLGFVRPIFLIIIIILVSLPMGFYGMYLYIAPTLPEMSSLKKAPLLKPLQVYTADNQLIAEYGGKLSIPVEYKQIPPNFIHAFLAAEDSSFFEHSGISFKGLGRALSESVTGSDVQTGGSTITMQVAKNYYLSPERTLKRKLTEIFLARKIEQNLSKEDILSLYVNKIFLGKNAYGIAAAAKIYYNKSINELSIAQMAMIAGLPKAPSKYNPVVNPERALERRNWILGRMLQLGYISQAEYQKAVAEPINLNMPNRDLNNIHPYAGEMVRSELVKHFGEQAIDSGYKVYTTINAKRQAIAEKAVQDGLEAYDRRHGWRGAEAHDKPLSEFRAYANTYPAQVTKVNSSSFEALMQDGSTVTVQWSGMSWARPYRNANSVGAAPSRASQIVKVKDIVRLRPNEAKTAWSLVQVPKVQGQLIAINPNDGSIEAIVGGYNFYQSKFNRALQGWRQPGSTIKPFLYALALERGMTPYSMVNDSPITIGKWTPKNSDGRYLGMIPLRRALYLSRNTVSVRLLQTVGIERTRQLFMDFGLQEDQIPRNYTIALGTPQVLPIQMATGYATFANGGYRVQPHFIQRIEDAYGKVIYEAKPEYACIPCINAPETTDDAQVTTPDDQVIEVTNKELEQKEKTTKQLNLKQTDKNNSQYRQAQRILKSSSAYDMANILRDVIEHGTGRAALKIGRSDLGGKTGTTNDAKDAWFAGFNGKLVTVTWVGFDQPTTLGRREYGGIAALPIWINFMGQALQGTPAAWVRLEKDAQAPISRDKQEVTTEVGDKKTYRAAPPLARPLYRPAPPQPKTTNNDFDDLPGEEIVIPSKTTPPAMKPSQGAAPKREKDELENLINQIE
Assay [3] deals with P. aeruginosa CDC-0110. The experiment in a line: Broth microdilution MIC in iron-depleted CAMHB (IDM). It is filed as cell-based. As to conditions: Pseudomonas aeruginosa, CDC0110, read-out: Minimum Inhibitory Concentration, P. aeruginosa CDC-0110. A digest of the protocol: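 MIC is the lowest well showing no visible growth after 16-20 h at 37 °C, starting from 2-8×10^5 CFU/mL in 2-fold serial compound dilutions. Medium: cation-adjusted Mueller Hinton broth iron-depleted with Chelex 100, supplemented back with Ca, Mg and Zn, pH 7.3; CLSI protocol.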

In assay [4] the test system is A. baumannii IL123 (ABΔ3-ARAEcPore). The description is as above. It is filed as cell-based. As to conditions: Acinetobacter baumannii, read-out: Minimum Inhibitory Concentration, IL-2123. A digest of the protocol:
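Iron-limited medium: CAMHB chelated with Chelex 100, cations restored, pH 7.3. CLSI-based microdilution, 2-8×10^5 CFU/mL inoculum, 37° C for 16-20 h (P. aeruginosa) or 20-24 h (A. baumannii). Endpoint is no visible growth.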

≈ marks a conversion by molar mass, not a printed value. Where only a bound is given, the exact number is not on record here.

Take `CCN1CCN(C(=O)N[C@@H](C(=O)N[C@H]2Cc3cccc(C(=O)O)c3OB2O)c2c(O)cc(O)cc2F)C(=O)C1=O` (single isomer, unassigned) [Example 182]: the EC50 in assay [1] and in assay [2] was greater than 100 µM in each case.
With `CS(=O)(=O)N1CCN(C(=O)N[C@@H](C(=O)N[C@H]2Cc3ccc(F)c(C(=O)O)c3OB2O)c2cc(F)c(O)c(O)c2Cl)C1=O` (single isomer, unassigned) [Example 189], the EC50 in assay [1] is 10 to 30 µM; in assay [2] it was greater than 100 µM. Further, the MIC in assay [3] was in the range of 0.5 to 1 µg/mL (≈ 0.79 to 1.58 µM).
As for `CCN1CCN(C(=O)N[C@@H](C(=O)N[C@H]2Cc3ccc(F)c(C(=O)O)c3OB2O)c2c(Cl)cc(O)c(O)c2F)C(=O)C1=O` (single isomer, unassigned) [Example 207], the EC50 in assay [1] fell in the range of 10 to 30 µM. For the same compound, in assay [3], the MIC was 2 to 4 µg/mL (≈ 3.27 to 6.55 µM).
For `O=C(NCCCN1CCN(C(=O)NC(C(=O)N[C@H]2Cc3cccc(C(=O)O)c3OB2O)c2ncc(O)cc2F)C(=O)C1=O)c1ccc(O)c(O)c1Cl` (stereo partly drawn) [Example 1, (3R)-3-(2-(4-(3-(2-chloro-3,4-dihydroxybenzamido)propyl)-2,3-dioxopiperazine-1-carboxamido)-2-(3-fluoro-5-hydroxypyridin-2-yl)acetamido)-2-hydroxy-3,4-dihydro-2H-benzo[e][1,2]oxaborinine-8-carboxylic acid], in assay [4], the MIC fell in the range of 0.5 to 1 µg/mL (≈ 0.673 to 1.35 µM). For the same compound, in assay [2], the EC50 fell in the range of 10 to 30 µM.
Regarding `C[C@H]1CN(CCNC(=O)c2ccc(O)c(O)c2Cl)C(=O)C(=O)N1C(=O)NC(C(=O)N[C@H]1Cc2cccc(C(=O)O)c2OB1O)c1ncc(O)cc1F` (stereo partly drawn) [Example 2, (3R)-3-(2-((S)-4-(2-(2-chloro-3,4-dihydroxybenzamido)ethyl)-6-methyl-2,3-dioxopiperazine-1-carboxamido)-2-(3-fluoro-5-hydroxypyridin-2-yl)acetamido)-2-hydroxy-3,4-dihydro-2H-benzo[e][1,2]oxaborinine-8-carboxylic acid], the EC50 in assay [1] was less than 10 µM; in assay [2], 10 to 30 µM. In addition, in assay [3], the MIC lay within 2 to 4 µg/mL (≈ 2.69 to 5.38 µM).
Take `O=C(NCCCN1CCN(C(=O)NC(C(=O)N[C@H]2Cc3ccc(F)c(C(=O)O)c3OB2O)c2ncc(O)cc2F)C(=O)C1=O)c1ccc(O)c(O)c1Cl` (stereo partly drawn) [Example 3, (3R)-3-(2-(4-(3-(2-chloro-3,4-dihydroxybenzamido)propyl)-2,3-dioxopiperazine-1-carboxamido)-2-(3-fluoro-5-hydroxypyridin-2-yl)acetamido)-7-fluoro-2-hydroxy-3,4-dihydro-2H-benzo[e][1,2]oxaborinine-8-carboxylic acid]: the figures for the EC50 in assay [1] and in assay [2] were less than 10 µM and 30 to 100 µM, respectively. In addition, in assay [3], the MIC was 2 to 4 µg/mL (≈ 2.63 to 5.26 µM).
`Nc1nc(C(NC(=O)N2CCN(CCNC(=O)c3ccc(O)c(O)c3Cl)C(=O)C2=O)C(=O)N[C@H]2Cc3ccc(F)c(C(=O)O)c3OB2O)c(F)s1` (stereo partly drawn) [Example 4, (3R)-3-(2-(2-amino-5-fluorothiazol-4-yl)-2-(4-(2-(2-chloro-3,4-dihydroxybenzamido)ethyl)-2,3-dioxopiperazine-1-carboxamido)acetamido)-7-fluoro-2-hydroxy-3,4-dihydro-2H-benzo[e][1,2]oxaborinine-8-carboxylic acid]: the results for the MIC in assay [4] and in assay [3] were 32 to 64 µg/mL (≈ 42.6 to 85.1 µM) and 0.25 µg/mL (≈ 0.333 µM), respectively.
For the compound `O=C(NCCN1CCN(C(=O)NC(C(=O)N[C@H]2Cc3ccc(F)c(C(=O)O)c3OB2O)c2ncc(O)cc2F)C(=O)C1=O)c1c(F)cc(O)c(O)c1Cl` (stereo partly drawn) [Example 5, (3R)-3-(2-(4-(2-(2-chloro-6-fluoro-3,4-dihydroxybenzamido)ethyl)-2,3-dioxopiperazine-1-carboxamido)-2-(3-fluoro-5-hydroxypyridin-2-yl)acetamido)-7-fluoro-2-hydroxy-3,4-dihydro-2H-benzo[e][1,2]oxaborinine-8-carboxylic acid], the figures for the MIC in assay [4] and in assay [3] were 2 to 4 µg/mL (≈ 2.61 to 5.23 µM) and 0.25 µg/mL (≈ 0.327 µM), respectively. The EC50 in assay [1] is less than 10 µM; in assay [2], 10 to 30 µM.
In the case of `Nc1nc(/C(=N/OC[C@H](NC(=O)c2ccc(O)c(O)c2Cl)C(=O)O)C(=O)N[C@H]2Cc3cccc(C(=O)O)c3OB2O)cs1` [Example 6, (R)-3-((Z)-2-(2-aminothiazol-4-yl)-2-(((S)-2-carboxy-2-(2-chloro-3,4-dihydroxybenzamido)ethoxy)imino)acetamido)-2-hydroxy-3,4-dihydro-2H-benzo[e][1,2]oxaborinine-8-carboxylic acid], the MIC in assay [4] fell in the range of 32 to 64 µg/mL (≈ 50.5 to 101 µM); in assay [3], 2 to 4 µg/mL (≈ 3.16 to 6.31 µM). In addition, the EC50 in assay [1] was greater than 100 µM.
Turning to `CCN1CCN(C(=O)NC(C(=O)N[C@H]2Cc3cccc(C(=O)O)c3OB2O)c2c(F)cc(NC(C)=O)cc2F)C(=O)C1=O` (stereo partly drawn) [Example 188, (3R)-3-(2-(4-acetamido-2,6-difluorophenyl)-2-(4-ethyl-2,3-dioxopiperazine-1-carboxamido)acetamido)-2-hydroxy-3,4-dihydro-2H-benzo[e][1,2]oxaborinine-8-carboxylic acid], the EC50 in assay [1] was less than 10 µM.
For `NCCCN1CCN(C(=O)N[C@@H](C(=O)N[C@H]2Cc3cc(Cl)c(F)c(C(=O)O)c3OB2O)c2c(F)cc(O)c(O)c2Cl)C(=O)C1=O` [Example 190, (R)-3-((R)-2-(4-(3-aminopropyl)-2,3-dioxopiperazine-1-carboxamido)-2-(2-chloro-6-fluoro-3,4-dihydroxyphenyl)acetamido)-6-chloro-7-fluoro-2-hydroxy-3,4-dihydro-2H-benzo[e][1,2]oxaborinine-8-carboxylic acid], the EC50 in assay [1] and in assay [2] was greater than 100 µM each time. Also, the MIC in assay [3] fell in the range of 2 to 4 µg/mL (≈ 2.97 to 5.93 µM).
For `CCN1CCN(C(=O)N[C@@H](C(=O)N[C@H]2Cc3cc(Cl)c(F)c(C(=O)O)c3OB2O)c2c(F)cc(O)c(O)c2Cl)C(=O)C1=O` [Example 191, (R)-6-chloro-3-((R)-2-(2-chloro-6-fluoro-3,4-dihydroxyphenyl)-2-(4-ethyl-2,3-dioxopiperazine-1-carboxamido)acetamido)-7-fluoro-2-hydroxy-3,4-dihydro-2H-benzo[e][1,2]oxaborinine-8-carboxylic acid], the EC50 in assay [1] was 30 to 100 µM; in assay [2] it was greater than 100 µM. Besides, the MIC in assay [3] lay in the range of 2 to 4 µg/mL (≈ 3.1 to 6.2 µM).
With `CS(=O)(=O)N1CCN(C(=O)NC(C(=O)N[C@H]2Cc3ccc(F)c(C(=O)O)c3OB2O)c2c(Cl)cc(O)c(O)c2F)C1=O` (stereo partly drawn) [Example 208, (3R)-3-(2-(6-chloro-2-fluoro-3,4-dihydroxyphenyl)-2-(3-(methylsulfonyl)-2-oxoimidazolidine-1-carboxamido)acetamido)-7-fluoro-2-hydroxy-3,4-dihydro-2H-benzo[e][1,2]oxaborinine-8-carboxylic acid], the EC50 in assay [1] lay in the range of 30 to 100 µM. For the same compound, the MIC in assay [3] fell in the range of 8 to 16 µg/mL (≈ 12.6 to 25.3 µM).
As to `CCN1CCN(C(=O)N[C@H](C(=O)N[C@H]2Cc3ccc(F)c(C(=O)O)c3OB2O)c2ccc(O)c(O)c2)C(=O)C1=O` [Example 210, (R)-3-((S)-2-(3,4-dihydroxyphenyl)-2-(4-ethyl-2,3-dioxopiperazine-1-carboxamido)acetamido)-7-fluoro-2-hydroxy-3,4-dihydro-2H-benzo[e][1,2]oxaborinine-8-carboxylic acid], the EC50 in assay [1] is greater than 100 µM. Moreover, the MIC in assay [3] is greater than 128 µg/mL.
For `CCN1CCN(C(=O)N[C@@H](C(=O)N[C@H]2Cc3ccc(F)c(C(=O)O)c3OB2O)c2ccc(O)c(O)c2)C(=O)C1=O` [Example 211, (R)-3-((R)-2-(3,4-dihydroxyphenyl)-2-(4-ethyl-2,3-dioxopiperazine-1-carboxamido)acetamido)-7-fluoro-2-hydroxy-3,4-dihydro-2H-benzo[e][1,2]oxaborinine-8-carboxylic acid] the same measures were 30 to 100 µM and 2 to 4 µg/mL (≈ 3.58 to 7.16 µM).
For `NCCN1CCN(C(=O)N[C@@H](C(=O)N[C@H]2Cc3ccc(F)c(C(=O)O)c3OB2O)c2c(F)c(F)c(O)c(O)c2Cl)C(=O)C1=O` [Example 226, (R)-3-((R)-2-(4-(2-aminoethyl)-2,3-dioxopiperazine-1-carboxamido)-2-(2-chloro-5,6-difluoro-3,4-dihydroxyphenyl)acetamido)-7-fluoro-2-hydroxy-3,4-dihydro-2H-benzo[e][1,2]oxaborinine-8-carboxylic acid] the same measures were greater than 100 µM and 0.5 to 1 µg/mL (≈ 0.777 to 1.55 µM).
